{"source": "patent US9932637B2", "about": "“Genetic polymorphisms associated with cardiovascular disorders and drug response, methods of detection and uses thereof” (CELERA CORPORATION, priority 2003, dated 2018)", "test_system": "patients with prior myocardial infarction (CARE study)", "test": "CARE aligned analysis (prospective and case/control design, white males): association of genotypes with pravastatin efficacy (Tables 13, 15)", "assay_type": "in vivo, human", "procedure": "The data presented in Table 8 based on an association of genotypes with pravastatin efficacy of the CARE samples were further analyzed and presented in Table 13. The further analysis was performed to align the data obtained from the analysis of the CARE samples, which was a prospective study, to the analysis of the WOSCOP samples, which was a case/control study. Table 13 also presents an analysis of the association of genotypes with pravastatin efficacy in the WOSCOPs samples. Relative to the analysis performed on the data presented in Table 8, there are two significant differences to determine if the SNP influenced pravastatin efficacy. Data obtained from the CARE samples were separated by study design into two groups, those in the prospective study design group and those in the case/control study design group. The original care study contained 16 protocol defined cardiovascular disease defined endpoints and 150 other phenotypes. […] The control groups used to compare the data were also divided into two groups, the “all possible” control group and the “cleaner” control group. […] Because the participants in the WOSCOPs trial were all white males, only data obtained from white males in the CARE study were analysed. Data from the “all possible” and “cleaner” controls were compared to data obtained from the cases in the prospective study design while only data from “cleaner” controls were compared to cases in the case/control study design. The data from the case/control cohorts were analysed using conditional logistic regression (as opposed to logistic regression used for the original anaylsis).\nThe anaylsis was refined as described for both Tables 13 and 14.", "key": {"[1]": {"settings": "CD6 hCV2553030, CARE, Case/Control, F MI/SD/NF MI"}, "[2]": {"settings": "CD6 hCV2553030, CARE, Prospective, F MI/SD/NF MI"}, "[3]": {"settings": "CD6 hCV25922320, CARE, Case/Control, F MI/SD/NF MI"}, "[4]": {"settings": "CD6 hCV25922320, CARE, Case/Control, F MI/SD/NF MI, listed as Pravastatin"}, "[5]": {"settings": "CD6 hCV25922320, CARE, Prospective, F MI/SD/NF MI"}, "[6]": {"settings": "CD163 hCV25591528, CARE Case/Control, F&NF MI"}, "[7]": {"settings": "CD163 hCV25591528, CARE Prospective, F&NF MI, listed as Pravastatin"}, "[8]": {"settings": "CD163 hCV25591528, CARE, Case/Control, F MI/SD/NF MI, listed as Pravastatin"}, "[9]": {"settings": "CD163 hCV25591528, CARE, Prospective, F MI/SD/NF MI"}, "[10]": {"settings": "COL2A1 hCV3276198, CARE Case/Control, F&NF MI"}, "[11]": {"settings": "COL11A1 hCV8400671, CARE Case/Control, F&NF MI"}, "[12]": {"settings": "CR1 hCV25598594, CARE Case/Control, F&NF MI"}, "[13]": {"settings": "CR1 hCV25598594, CARE Prospective, F&NF MI"}, "[14]": {"settings": "CR1 hCV25598594, CARE, Case/Control, F MI/SD/NF MI"}, "[15]": {"settings": "CR1 hCV25598594, CARE, Prospective, F MI/SD/NF MI"}, "[16]": {"settings": "CXCL16 hCV8718197, CARE Prospective, F&NF MI"}, "[17]": {"settings": "CXCL16 hCV8718197, CARE, Case/Control, F MI/SD/NF MI"}, "[18]": {"settings": "CXCL16 hCV8718197, CARE, Prospective, F MI/SD/NF MI"}, "[19]": {"settings": "CYBA hCV2038, CARE Case/Control, F&NF MI"}, "[20]": {"settings": "ELN hCV1253630, CARE, Case/Control, F MI/SD/NF MI"}, "[21]": {"settings": "ELN hCV1253630, CARE, Prospective, F MI/SD/NF MI"}, "[22]": {"settings": "F7 hCV783138, CARE Case/Control, F&NF MI"}}, "note": "Where “and” joins values, the source holds several entries; their conditions need not be identical. Equal entries are not always repeated."}
{"compound": "CC[C@H](C)C(=O)O[C@H]1C[C@H](O)C=C2C=C[C@H](C)[C@H](CC[C@@H](O)C[C@@H](O)CC(=O)O)[C@H]21", "note": "[pravastatin]", "values": [{"measurement": "Pravastatin vs placebo odds ratio, 2 rare alleles", "setting": "CAPN10 hCV25614016, CARE, Prospective, F MI/SD/NF MI", "result": "0.90 and 0.78"}, {"measurement": "OR of fatal MI/sudden death/non-fatal MI in the presence of statin treatment", "setting": "CARE, hCV2442143, 0 rare alleles", "result": 0.42}, {"measurement": "OR of fatal MI/sudden death/non-fatal MI in the presence of statin treatment", "setting": "CARE, hCV2442143, one rare allele, not statistically significant", "result": 0.78}, {"measurement": "OR of fatal MI/sudden death/non-fatal MI in the presence of statin treatment", "setting": "CARE, hCV2442143, two rare alleles, not statistically significant", "result": 1.16}, {"measurement": "2 Rare Alleles n/total, Pravastatin Patients", "setting": "CD6 hCV2553030, CARE Case/Control, F&NF MI", "result": "2/91 and 2/63"}, {"measurement": "2 Rare Alleles n/total, Pravastatin Patients", "setting": "CD6 hCV2553030, CARE Prospective, F&NF MI", "result": "2/92 and 2/64"}, {"measurement": "Pravastatin vs placebo odds ratio, 0 rare alleles", "setting": "[1]", "result": "0.97 and 0.92"}, {"measurement": "Pravastatin vs placebo odds ratio, 1 rare allele", "setting": "[1]", "result": "0.80 and 0.68"}, {"measurement": "Pravastatin vs placebo odds ratio, 2 rare alleles", "setting": "[1]", "result": "0.06 and 0.04"}, {"measurement": "Pravastatin vs placebo odds ratio, 0 rare alleles", "setting": "[2]", "result": "0.97 and 0.88"}, {"measurement": "Pravastatin vs placebo odds ratio, 1 rare allele", "setting": "[2]", "result": "0.81 and 0.72"}, {"measurement": "Pravastatin vs placebo odds ratio, 2 rare alleles", "setting": "[2]", "result": "0.06 and 0.04"}, {"measurement": "2 rare alleles n/total (%), pravastatin patients", "setting": "[3]", "result": "(17.9%)"}, {"measurement": "Pravastatin vs placebo odds ratio, 2 rare alleles", "setting": "[3]", "result": 1.44}, {"measurement": "Pravastatin vs placebo odds ratio, 0 rare alleles", "setting": "[4]", "result": "0.57 and 0.49"}, {"measurement": "Pravastatin vs placebo odds ratio, 1 rare allele", "setting": "[4]", "result": "1.39 and 1.36"}, {"measurement": "Pravastatin vs placebo odds ratio, 2 rare alleles", "setting": "[4]", "result": 1.09}, {"measurement": "2 rare alleles n/total (%), pravastatin patients", "setting": "[5]", "result": "(17.9%)"}, {"measurement": "Pravastatin vs placebo odds ratio, 0 rare alleles", "setting": "[5]", "result": "0.58 and 0.51"}, {"measurement": "Pravastatin vs placebo odds ratio, 1 rare allele", "setting": "[5]", "result": "1.39 and 1.27"}, {"measurement": "Pravastatin vs placebo odds ratio, 2 rare alleles", "setting": "[5]", "result": "1.09 and 1.17"}, {"measurement": "2 Rare Alleles n/total, Pravastatin Patients", "setting": "[6]", "result": "4/24 and 4/21"}, {"measurement": "Pravastatin vs placebo odds ratio, 2 rare alleles", "setting": "[6]", "result": "1.23 and 0.64"}, {"measurement": "Pravastatin vs placebo odds ratio, 2 rare alleles", "setting": "CD163 hCV25591528, CARE Prospective, F&NF MI", "result": 0.59}, {"measurement": "2 Rare Alleles n/total, Pravastatin Patients", "setting": "[7]", "result": "4/25 and 4/21"}, {"measurement": "Pravastatin vs placebo odds ratio, 2 rare alleles", "setting": "[7]", "result": 1.14}, {"measurement": "Pravastatin vs placebo odds ratio, 2 rare alleles", "setting": "CD163 hCV25591528, CARE, Case/Control, F MI/SD/NF MI", "result": 0.99}, {"measurement": "Pravastatin vs placebo odds ratio, 0 rare alleles", "setting": "[8]", "result": "0.96 and 0.88"}, {"measurement": "Pravastatin vs placebo odds ratio, 1 rare allele", "setting": "[8]", "result": "0.29 and 0.27"}, {"measurement": "Pravastatin vs placebo odds ratio, 2 rare alleles", "setting": "[8]", "result": 1.97}, {"measurement": "Pravastatin vs placebo odds ratio, 0 rare alleles", "setting": "[9]", "result": "0.97 and 0.86"}, {"measurement": "Pravastatin vs placebo odds ratio, 1 rare allele", "setting": "[9]", "result": "0.30 and 0.28"}, {"measurement": "Pravastatin vs placebo odds ratio, 2 rare alleles", "setting": "[9]", "result": 0.88}, {"measurement": "2 Rare Alleles (%), Pravastatin Patients", "setting": "[10]", "result": "(35.0%)"}, {"measurement": "2 Rare Alleles n/total, Pravastatin Patients", "setting": "[10]", "result": "7/20"}, {"measurement": "2 Rare Alleles (%), Pravastatin Patients", "setting": "[11]", "result": "(1.9%)"}, {"measurement": "2 Rare Alleles n/total, Pravastatin Patients", "setting": "[11]", "result": "1/52"}, {"measurement": "2 Rare Alleles (%), Pravastatin Patients", "setting": "[12]", "result": "(0.0%)"}, {"measurement": "2 Rare Alleles n/total, Pravastatin Patients", "setting": "[12]", "result": "0/0"}, {"measurement": "2 Rare Alleles (%), Pravastatin Patients", "setting": "[13]", "result": "(0.0%)"}, {"measurement": "2 Rare Alleles n/total, Pravastatin Patients", "setting": "[13]", "result": "0/0"}, {"measurement": "Pravastatin vs placebo odds ratio, 0 rare alleles", "setting": "[14]", "result": "0.86 and 0.78"}, {"measurement": "Pravastatin vs placebo odds ratio, 1 rare allele", "setting": "[14]", "result": "0.09 and 0.07"}, {"measurement": "Pravastatin vs placebo odds ratio, 0 rare alleles", "setting": "[15]", "result": "0.87 and 0.78"}, {"measurement": "Pravastatin vs placebo odds ratio, 1 rare allele", "setting": "[15]", "result": "0.08 and 0.06"}, {"measurement": "2 Rare Alleles n/total, Pravastatin Patients", "setting": "CXCL16 hCV8718197, CARE Case/Control, F&NF MI", "result": "32/233 and 32/160"}, {"measurement": "2 Rare Alleles (%), Pravastatin Patients", "setting": "[16]", "result": "(19.8%)"}, {"measurement": "2 Rare Alleles n/total, Pravastatin Patients", "setting": "[16]", "result": "32/237 and 32/162"}, {"measurement": "2 rare alleles n/total (%), pravastatin patients", "setting": "[17]", "result": "(17.4%)"}, {"measurement": "Pravastatin vs placebo odds ratio, 0 rare alleles", "setting": "[17]", "result": 0.38}, {"measurement": "Pravastatin vs placebo odds ratio, 1 rare allele", "setting": "[17]", "result": 0.91}, {"measurement": "Pravastatin vs placebo odds ratio, 2 rare alleles", "setting": "[17]", "result": 1.12}, {"measurement": "2 rare alleles n/total (%), pravastatin patients", "setting": "[18]", "result": "(17.2%)"}, {"measurement": "Pravastatin vs placebo odds ratio, 0 rare alleles", "setting": "[18]", "result": 0.38}, {"measurement": "Pravastatin vs placebo odds ratio, 1 rare allele", "setting": "[18]", "result": 0.92}, {"measurement": "Pravastatin vs placebo odds ratio, 2 rare alleles", "setting": "[18]", "result": 1.06}, {"measurement": "2 Rare Alleles (%), Pravastatin Patients", "setting": "[19]", "result": "(16.9%)"}, {"measurement": "2 Rare Alleles n/total, Pravastatin Patients", "setting": "[19]", "result": "23/136"}, {"measurement": "2 rare alleles n/total (%), pravastatin patients", "setting": "[20]", "result": "(18.3%)"}, {"measurement": "Pravastatin vs placebo odds ratio, 0 rare alleles", "setting": "[20]", "result": 0.53}, {"measurement": "Pravastatin vs placebo odds ratio, 1 rare allele", "setting": "[20]", "result": 0.70}, {"measurement": "Pravastatin vs placebo odds ratio, 2 rare alleles", "setting": "[20]", "result": 1.64}, {"measurement": "2 rare alleles n/total (%), pravastatin patients", "setting": "[21]", "result": "(18.2%)"}, {"measurement": "Pravastatin vs placebo odds ratio, 0 rare alleles", "setting": "[21]", "result": 0.52}, {"measurement": "Pravastatin vs placebo odds ratio, 1 rare allele", "setting": "[21]", "result": 0.71}, {"measurement": "Pravastatin vs placebo odds ratio, 2 rare alleles", "setting": "[21]", "result": 1.60}, {"measurement": "2 Rare Alleles n/total, Pravastatin Patients", "setting": "ELN hCV1253830, CARE Case/Control, F&NF MI", "result": "28/204 and 28/133"}, {"measurement": "2 Rare Alleles n/total, Pravastatin Patients", "setting": "ELN hCV1253830, CARE Prospective, F&NF MI", "result": "28/208 and 28/136"}, {"measurement": "2 Rare Alleles (%), Pravastatin Patients", "setting": "[22]", "result": "(7.7%)"}, {"measurement": "2 Rare Alleles n/total, Pravastatin Patients", "setting": "[22]", "result": "1/13 and 1/9"}, {"measurement": "2 Rare Alleles (%), Pravastatin Patients", "setting": "F7 hCV783138, CARE Prospective, F&NF MI", "result": "(7.7%)"}]}
